Patent US20260102472A1, “SEMAGLUTIDE IN MEDICAL THERAPY” (Novo Nordisk A/S, priority 2023, published 2026)

Key:
[1] = system: human subjects with obesity-related heart failure with preserved ejection fraction; test: Randomised, double-blind, placebo-controlled clinical trial of semaglutide in obesity-related HFpEF (Example 1); assay type: in vivo; settings: for Time to first HF event from randomisation leading to either hospitalisation or an urgent visit, Hazard ratio: Semaglutide 2.4 mg/placebo; for Observed KCCQ-CSS mean change from baseline: 2.4 mg once weekly subcutaneously
Source text: The Kansas City Cardiomyopathy Questionnaire (KCCQ) is a disease-specific health status instrument composed of 23 items that quantify the domains of physical limitation, symptoms, self-efficacy, social limitation, and health-related quality of life limitation from heart failure (available via cvoutcomes.org). The questions of the KCCQ are as published in the appendix of Green et al., JACC 2000; 35 (5): 1245-55:
The Kansas City Cardiomyopathy Questionnaire clinical summary score (KCCQ-CSS) is used for interpretation of the KCCQ and scores range from 0 to 100 where higher scores indicate better function. KCCQ-CSS is calculated as the mean of the available summary scores Physical Limitation Score and Total Symptom Score from the KCCQ. […] “Total Symptom Score” is calculated as the mean of the available summary scores Symptom Frequency Score and Symptom Burden Score. “Symptom Frequency Score” is calculated, if answer to at least two of Questions 3, 5, 7 and 9 are not missing, as 100*(mean of S3, S5, S7 and S9 answered), where S3=[(Question 3)−1]/4, S5=[(Question 5)−1]/6, S7=[(Question 7)−1]/6, and S9=[(Question 9)−1]/4; answers to Question 3 are scored as follows: Every morning=1, 3 or more times a week but not every day=2, 1-2 times a week=3, Less than once a week=4, Never over the past 2 weeks=5; answers to Questions 5 and 7 are scored as follows: All of the time=1, Several times a day=2, At least once a day=3, 3 or more times a week but not every day=4, 1-2 times a week=5, Less than once a week=6, or Never over the past 2 weeks=7; and answers to Question 9 are scored as follows: Every night=1, 3 or more times a week but not every day=2, 1-2 times a week=3, Less than once a week=4, or Never over the past 2 weeks=5. “Symptom Burden Score” is calculated, if answer to at least one of Questions 4, 6 and 8 is not missing, as 100*[(mean of Questions 4, 6 and 8 answered)−1]/4 where answers are scored as follows: Extremely bothersome=1, Quite a bit bothersome=2, Moderately bothersome=3, Slightly bothersome=4, Not at all bothersome=5, or I've had no swelling/fatigue/shortness of breath=5. The term “mean of questions answered” as used herein refers to that for a scale with n in questions where the subject must answer m to score the scale, but the subject answers only n-i, where n-i>=m, then the mean of those questions is calculated as (sum of answers to those n-i questions)/(n-i).
The six minute walk test (6MWT) is a determination of the distance a subject is able to walk over a period of six minutes where the subject traverses, at its own pace and resting as needed, back and forth along a marked walkway of 20 meters with the goal of walking as far as possible without running. The distance obtained from 6MWT is referred to as the six minute walk distance (6MWD). The 6MWT is a direct and timed measure of walking ability, which is technically simple and reproducible.
Heart failure exists in different degrees of severity. The most commonly used classification system of heart failure is the New York Heart Association Functional Classification (also referred to as “NYHA”). NYHA categorises subjects in one of four classes I-IV (Table A), based on their degree of limitation during physical activity, and optionally an additional subgroup A-D based on objective assessments, for further details see The Criteria Committee of the New York Heart Association. Nomenclature and Criteria for Diagnosis of Diseases of the Heart and Great Vessels. 9th ed. Boston, Mass: Little, Brown & Co; 1994:253-256.
A randomised, double-blind, international multicentre, placebo-controlled clinical trial with semaglutide was carried out with 529 human subjects with obesity-related heart failure with preserved ejection fraction. Key inclusion criteria were body mass index (BMI) of at least 30 kg/m^2, NYHA Class II-IV, and LVEF of at least 45% at time of screening for the clinical trial. […]

[2] = system: hospitalisation for heart failure; settings: 0.5 mg or 1.0 mg subcutaneous once weekly, compared to placebo; cited from earlier work
[3] = pair-wise comparisons vs. placebo, 2.4 mg
[4] = week 52, 2.4 mg once weekly vs. placebo
[5] = week 52, 2.4 mg once weekly vs. placebo, listed as semaglutide
[6] = week 52, 2.4 mg once weekly, ANCOVA estimate

In the case of “N-epsilon26-[2-(2-{2-[2-(2-{2-[(S)-4-Carboxy-4-(17-carboxyheptadecanoyl-amino) butyrylamino]ethoxy}ethoxy) acetylamino]ethoxy}ethoxy) acetyl] [Aib8,Arg34] GLP-1-(7-37) [Semaglutide]”, the Inflammation ([1]; HFpEF and obesity, no data given) is reported as “reduced inflammation”, the “Time to first HF event from randomisation leading to either hospitalisation or an urgent visit, Hazard ratio” value [1] is reported as 0.08 and the “Time to first HF event from randomisation leading to either hospitalisation or an urgent visit, Hazard ratio” value ([1]; listed as semaglutide) is reported as “risk of experiencing a heart failure event was less”. The “Patients improved or with no change in NYHA class compared with placebo” value ([1]; baseline to 52 weeks) was “more patients treated with semaglutide improved or observed no change in NYHA class”, the “More wins on semaglutide as compared to placebo” value ([1]; hierarchical composite endpoint) was 72% and the “Hierarchical composite endpoint, Loss: All-cause death” value [1, 3] was 1.1%. The “Hierarchical composite endpoint, Loss: Change in 6MWD ≥30 meters difference” value [1, 3] was 3.7%, the “Hierarchical composite endpoint, Loss: Change in KCCQ-CSS ≥5 points difference” value [1, 3] was 7.0% and the “Hierarchical composite endpoint, Loss: Change in KCCQ-CSS ≥10 points difference” value [1, 3] was 5.6%. For the same substance, the “Hierarchical composite endpoint, Loss: Change in KCCQ-CSS ≥15 points difference” value [1, 3] was 17.5%, the “Hierarchical composite endpoint, Loss: Number of HF events” value [1, 3] was 0.0% and the “Hierarchical composite endpoint, Loss: Time-to-first HF event” value [1, 3] was 0.0%. The “Hierarchical composite endpoint, Loss: Total” value [1, 3] was 34.9%, the “Hierarchical composite endpoint, Proportion of ties” value [1, 3] was “Proportion of ties: 5.1%” and the “Hierarchical composite endpoint, Wins: All-cause death” value [1, 3] was 1.5%. The “Hierarchical composite endpoint, Wins: Change in 6MWD ≥30 meters difference” value [1, 3] was 6.3%, the “Hierarchical composite endpoint, Wins: Change in KCCQ-CSS ≥5 points difference” value [1, 3] was 8.2% and the “Hierarchical composite endpoint, Wins: Change in KCCQ-CSS ≥10 points difference” value [1, 3] was 7.2%. The “Hierarchical composite endpoint, Wins: Change in KCCQ-CSS ≥15 points difference” value [1, 3] was 33.7%, the “Hierarchical composite endpoint, Wins: Number of HF events” value [1, 3] was 3.3% and the “Hierarchical composite endpoint, Wins: Time-to-first HF event” value [1, 3] was 0.0%. For the same substance, the “Hierarchical composite endpoint, Wins: Total” value [1, 3] was 60.1%, the “Observed body weight (%) mean change from baseline” value ([1]; week 0, 2.4 mg once weekly) was 0% and the “Observed six minutes walk distance mean change from baseline” value ([1]; week 0, 2.4 mg once weekly) was 0 meters. The “Observed KCCQ-CSS mean change from baseline” value (“Observed KCCQ-CSS mean change” for short) ([1]; week 0) was 0, the “Observed body weight (%) mean change from baseline” value ([1]; week 4, dose escalation to 2.4 mg once weekly) was −2.1% and the “Observed body weight (%) mean change from baseline” value ([1]; week 8, dose escalation to 2.4 mg once weekly) was −3.2%. The “Observed body weight (%) mean change from baseline” value ([1]; week 12, dose escalation to 2.4 mg once weekly) was −5.0%, the “Observed body weight (%) mean change from baseline” value ([1]; week 16, dose escalation to 2.4 mg once weekly) was −6.6% and the “Observed body weight (%) mean change from baseline” value ([1]; week 20, 2.4 mg once weekly) was −7.8%. The “Observed six minutes walk distance mean change from baseline” value ([1]; week 20, 2.4 mg once weekly) was 14.3 meters, the “Observed KCCQ-CSS mean change” value ([1]; week 20) was 11.0 and the “Observed body weight (%) mean change from baseline” value ([1]; week 28, 2.4 mg once weekly) was −10.2%. For the same substance, the “Observed body weight (%) mean change from baseline” value ([1]; week 36, 2.4 mg once weekly) was −12.1%, the “Observed KCCQ-CSS mean change” value ([1]; week 36) was 15.0 and the “Observed body weight (%) mean change from baseline” value ([1]; week 44, 2.4 mg once weekly) was −12.9%. For the same substance, the “NYHA class from baseline to week 52: Improvement” value ([1]; week 52, 2.4 mg once weekly) was 36.4%, the “NYHA class from baseline to week 52: No change” value ([1]; week 52, 2.4 mg once weekly) was 61.7% and the “NYHA class from baseline to week 52: Worsening” value ([1]; week 52, 2.4 mg once weekly) was 2.0%. The “Observed body weight (%) mean change from baseline” value ([1]; week 52, 2.4 mg once weekly) was −13.9%, the “Observed proportion improving ≥5 points from baseline in KCCQ-CSS” value ([1]; week 52, 2.4 mg once weekly) was 75% and the “Observed proportion improving ≥10 points from baseline in KCCQ-CSS” value ([1]; week 52, 2.4 mg once weekly) was 63%. The “Observed six minutes walk distance mean change from baseline” value ([1]; week 52, 2.4 mg once weekly) was 23.5 meters, the “Observed KCCQ-CSS mean change” value ([1]; week 52) was 16.8 and the “Body weight (%) change from baseline to week 52, Treatment difference vs. placebo” value [1, 4] was −10.7%. The “Improvement of ≥5 points in KCCQ-CSS, Treatment Odds ratio vs. placebo” value [1, 4] was 1.88, the “Improvement of ≥10 points in KCCQ-CSS, Treatment Odds ratio vs. placebo” value [1, 4] was 2.10 and the “KCCQ-CSS change from baseline to week 52, Treatment difference vs. placebo” value [1, 4] was 7.8 score. For the same substance, the “Six minutes walk distance change from baseline to week 52, Treatment difference vs. placebo” value [1, 4] was 20.3 meters, the “Body weight (%) change from baseline to week 52, Treatment difference vs. placebo” value [1, 5] was “significantly larger body weight loss” and the “KCCQ-CSS change from baseline to week 52, Treatment difference vs. placebo” value [1, 5] was “significantly larger improvement in KCCQ-CSS”. For the same substance, the “Six minutes walk distance change from baseline to week 52, Treatment difference vs. placebo” value [1, 5] was “significantly larger improvement in six minutes walk distance”, the “Body weight (%) change from baseline to week 52, Estimate” value [1, 6] was −13.3% and the “KCCQ-CSS change from baseline to week 52, Estimate” value [1, 6] was 16.6 score. The “Six minutes walk distance change from baseline to week 52, Estimate” value [1, 6] was 21.5 meters and the “Hospitalisation for heart failure, hazard ratio (95% confidence interval)” value [2] was 1.11 (0.77−1.61).
